By inhibition is commonly meant the change of the read-out against control, counted positive when it falls.

In the experiment the target is T1, human full-length recombinant PKC βII (Homo sapiens, UniProt P05771).
T1 construct: Active human full-length recombinant PKC βII; purchased Invitrogen GmbH, Darmstadt, Germany
As to the kind of experiment: Determination of PKC βII inhibition (Caliper mobility-shift kinase assay, Fluorescein-RFARKGSLRQKNV peptide substrate). Type of experiment: biochemical. The conditions noted are these: example compounds at a final concentration of 1.14 μM (±0.15 μM). Put shortly:
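Compounds were tested at 1.14 μM final. Enzyme was activated by PS, DAG and CaCl2 in Hepes pH 7.4 with MgCl2, with substrate 3 μM and ATP 120 μM as pre-mix concentrations. After 60 min at 32 °C and an EDTA stop, Caliper separation gave fractional turnover, which was normalised to no-compound and no-enzyme controls.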

T1 sequence (P05771 1-673 isoform P05771-2): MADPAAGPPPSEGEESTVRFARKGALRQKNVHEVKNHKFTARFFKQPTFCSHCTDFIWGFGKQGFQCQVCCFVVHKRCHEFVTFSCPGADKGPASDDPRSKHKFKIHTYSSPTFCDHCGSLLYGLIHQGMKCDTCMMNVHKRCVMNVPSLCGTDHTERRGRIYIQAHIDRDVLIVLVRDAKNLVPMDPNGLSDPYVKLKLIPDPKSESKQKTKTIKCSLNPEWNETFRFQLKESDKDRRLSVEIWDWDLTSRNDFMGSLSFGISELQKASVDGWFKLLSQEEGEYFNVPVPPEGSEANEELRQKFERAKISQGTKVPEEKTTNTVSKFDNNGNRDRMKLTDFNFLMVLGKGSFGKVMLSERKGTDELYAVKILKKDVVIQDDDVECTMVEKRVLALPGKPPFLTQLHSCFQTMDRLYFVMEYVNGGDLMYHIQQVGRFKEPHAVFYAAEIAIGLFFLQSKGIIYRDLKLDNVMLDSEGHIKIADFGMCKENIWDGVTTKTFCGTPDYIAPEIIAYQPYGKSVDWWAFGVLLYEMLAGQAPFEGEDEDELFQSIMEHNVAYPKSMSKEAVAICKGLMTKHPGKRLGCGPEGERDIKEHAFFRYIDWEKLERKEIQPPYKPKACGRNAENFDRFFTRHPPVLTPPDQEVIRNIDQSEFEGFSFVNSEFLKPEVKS

On to `Cc1n[nH]c2nc(-c3ccc(O)c(F)c3)cc(C(=O)N(C)C3CCN(C)CC3)c12` [Example 331, 6-(3-Fluoro-4-hydroxy-phenyl)-3-methyl-1H-pyrazolo[3,4-b]pyridine-4-carboxylic acid methyl-(1-methyl-piperidin-4-yl)-amide], for which the inhibition at 1.14 µM came out at 41%. `CCN1CCCC(NC(=O)c2cc(-c3ccc(O)c(F)c3)nc3[nH]nc(C)c23)C1` (stereo not drawn) [Example 332, 6-(3-Fluoro-4-hydroxy-phenyl)-3-methyl-1H-pyrazolo[3,4-b]pyridine-4-carboxylic acid (1-ethyl-piperidin-3-yl)-amide]: the inhibition at 1.14 µM came to 63%.

`Cc1n[nH]c2nc(-c3ccc(O)c(F)c3)cc(C(=O)NC3CN4CCC3CC4)c12` (stereo not drawn) [Example 333, 6-(3-Fluoro-4-hydroxy-phenyl)-3-methyl-1H-pyrazolo[3,4-b]pyridine-4-carboxylic acid (1-aza-bicyclo[2.2.2]oct-3-yl)-amide]: the inhibition at 1.14 µM was found to be 67%. As for `Cc1n[nH]c2nc(-c3ccc(O)c(F)c3)cc(C(=O)N3C[C@]4(C)CN(C)C[C@](C)(C3)C4O)c12` (stereo partly drawn) [Example 334, [6-(3-Fluoro-4-hydroxy-phenyl)-3-methyl-1H-pyrazolo[3,4-b]pyridin-4-yl]-((1S,5R)-9-hydroxy-1,5,7-trimethyl-3,7-diaza-bicyclo[3.3.1]non-3-yl)-methanone], the inhibition at 1.14 µM is 53%. Turning to `Cc1n[nH]c2nc(-c3ccc(O)c(F)c3)cc(C(=O)N(C)C3CCNCC3)c12` [Example 335, 6-(3-Fluoro-4-hydroxy-phenyl)-3-methyl-1H-pyrazolo[3,4-b]pyridine-4-carboxylic acid methyl-piperidin-4-yl-amide], the inhibition at 1.14 µM was found to be 61%. On to `Cc1n[nH]c2nc(-c3ccc(O)c(F)c3)cc(C(=O)N3CCC(N)C3)c12` (stereo not drawn) [Example 336, (3-Amino-pyrrolidin-1-yl)-[6-(3-fluoro-4-hydroxy-phenyl)-3-methyl-1H-pyrazolo[3,4-b]pyridin-4-yl]-methanone], for which the inhibition at 1.14 µM stood at 73%. The result for `Cc1n[nH]c2nc(-c3ccc(O)c(F)c3)cc(C(=O)N3CCN[C@H](C)C3)c12` [Example 337, [6-(3-Fluoro-4-hydroxy-phenyl)-3-methyl-1H-pyrazolo[3,4-b]pyridin-4-yl]-((R)-3-methyl-piperazin-1-yl)-methanone] reads 93%; that for `Cc1n[nH]c2nc(-c3ccc(O)c(F)c3)cc(C(=O)NC3CCC(N)CC3)c12` (stereo not drawn) [Example 338, 6-(3-Fluoro-4-hydroxy-phenyl)-3-methyl-1H-pyrazolo[3,4-b]pyridine-4-carboxylic acid (4-amino-cyclohexyl)-amide], 68%. Regarding `Cc1n[nH]c2nc(-c3ccc(O)c(F)c3)cc(C(=O)N3CC4(CCNCC4)C3)c12` [Example 339, (2,7-Diaza-spiro[3.5]non-2-yl)-[6-(3-fluoro-4-hydroxy-phenyl)-3-methyl-1H-pyrazolo[3,4-b]pyridin-4-yl]-methanone], the inhibition at 1.14 µM stood at 73%. For the compound `Cc1n[nH]c2nc(-c3ccc(O)c(F)c3)cc(C(=O)N3CCC4(CCNC4)C3)c12` (stereo not drawn) [Example 340, (2,7-Diaza-spiro[4.4]non-2-yl)-[6-(3-fluoro-4-hydroxy-phenyl)-3-methyl-1H-pyrazolo[3,4-b]pyridin-4-yl]-methanone], the inhibition at 1.14 µM was 67%. Regarding `Cc1n[nH]c2nc(-c3ccc(O)c(F)c3)cc(C(=O)N3CCC4(CCNC4)CC3)c12` [Example 341, (2,8-Diaza-spiro[4.5]dec-8-yl)-[6-(3-fluoro-4-hydroxy-phenyl)-3-methyl-1H-pyrazolo[3,4-b]pyridin-4-yl]-methanone], the inhibition at 1.14 µM was found to be 53%. Take `Cc1n[nH]c2nc(-c3ccc(O)c(F)c3)cc(C(=O)N3CCC4(CC3)CNCCO4)c12` [Example 342, [6-(3-Fluoro-4-hydroxy-phenyl)-3-methyl-1H-pyrazolo[3,4-b]pyridin-4-yl]-(1-oxa-4,9-diaza-spiro[5.5]undec-9-yl)-methanone]: the inhibition at 1.14 µM came to 60%. The result for `Cc1n[nH]c2nc(-c3ccc(O)c(F)c3)cc(C(=O)N3CCC4(CCNCC4)C3)c12` [Example 343, (2,8-Diaza-spiro[4.5]dec-2-yl)-[6-(3-fluoro-4-hydroxy-phenyl)-3-methyl-1H-pyrazolo[3,4-b]pyridin-4-yl]-methanone] reads 49%; that for `Cc1n[nH]c2nc(-c3ccc(O)c(F)c3)cc(C(=O)N3CCOC4(CCNCC4)C3)c12` [Example 344, [6-(3-Fluoro-4-hydroxy-phenyl)-3-methyl-1H-pyrazolo[3,4-b]pyridin-4-yl]-(1-oxa-4,9-diaza-spiro[5.5]undec-4-yl)-methanone], 64%. As to `Cc1n[nH]c2nc(-c3ccc(O)c(F)c3)cc(C(=O)N3CCCC4(CNCCO4)C3)c12` (stereo not drawn) [Example 345, [6-(3-Fluoro-4-hydroxy-phenyl)-3-methyl-1H-pyrazolo[3,4-b]pyridin-4-yl]-(1-oxa-4,8-diaza-spiro[5.5]undec-8-yl)-methanone], the inhibition at 1.14 µM was 58%. As for `Cc1n[nH]c2nc(-c3ccc(O)c(F)c3)cc(C(=O)N3CCCC4(CCNC4)C3)c12` (stereo not drawn) [Example 346, (2,7-Diaza-spiro[4.5]dec-7-yl)-[6-(3-fluoro-4-hydroxy-phenyl)-3-methyl-1H-pyrazolo[3,4-b]pyridin-4-yl]-methanone], the inhibition at 1.14 µM came to 59%.

In the case of `Cc1n[nH]c2nc(-c3ccc(O)c(F)c3)cc(C(=O)N3CC[C@@H](N(C)C)C3)c12` [Example 347, ((R)-3-Dimethylamino-pyrrolidin-1-yl)-[6-(3-fluoro-4-hydroxy-phenyl)-3-methyl-1H-pyrazolo[3,4-b]pyridin-4-yl]-methanone], the inhibition at 1.14 µM was found to be 35%. In the case of `Cc1n[nH]c2nc(-c3ccc(O)c(F)c3)cc(C(=O)N3CC[C@H](N(C)C)C3)c12` [Example 348, ((S)-3-Dimethylamino-pyrrolidin-1-yl)-[6-(3-fluoro-4-hydroxy-phenyl)-3-methyl-1H-pyrazolo[3,4-b]pyridin-4-yl]-methanone], the inhibition at 1.14 µM amounted to 44%. The result for `Cc1n[nH]c2nc(-c3ccc(O)c(F)c3)cc(C(=O)NC3CCCNC3)c12` (stereo not drawn) [Example 349, 6-(3-Fluoro-4-hydroxy-phenyl)-3-methyl-1H-pyrazolo[3,4-b]pyridine-4-carboxylic acid piperidin-3-ylamide] reads 81%; that for `Cc1n[nH]c2nc(-c3ccc(O)c(F)c3)cc(C(=O)NC3CC4CC3CN4)c12` (stereo not drawn) [Example 350, 6-(3-Fluoro-4-hydroxy-phenyl)-3-methyl-1H-pyrazolo[3,4-b]pyridine-4-carboxylic acid (2-aza-bicyclo[2.2.1]hept-5-yl)-amide], 77%; that for `Cc1n[nH]c2nc(-c3ccc(O)c(F)c3)cc(C(=O)N3CCN[C@@H](CC(C)C)C3)c12` [Example 351, [6-(3-Fluoro-4-hydroxy-phenyl)-3-methyl-1H-pyrazolo[3,4-b]pyridin-4-yl]-((S)-3-isobutyl-piperazin-1-yl)-methanone], 88%. The result for `Cc1n[nH]c2nc(-c3ccc(O)c(F)c3)cc(C(=O)N3CCNC(C)C3C)c12` (stereo not drawn) [Example 352, (2,3-Dimethyl-piperazin-1-yl)-[6-(3-fluoro-4-hydroxy-phenyl)-3-methyl-1H-pyrazolo[3,4-b]pyridin-4-yl]-methanone] reads 84%; that for `COC(=O)CC1CNCCN1C(=O)c1cc(-c2ccc(O)c(F)c2)nc2[nH]nc(C)c12` (stereo not drawn) [Example 353, {1-[6-(3-Fluoro-4-hydroxy-phenyl)-3-methyl-1H-pyrazolo[3,4-b]pyridine-4-carbonyl]-piperazin-2-yl}-acetic acid methyl ester], 70%; that for `Cc1n[nH]c2nc(-c3ccc(O)c(F)c3)cc(C(=O)NCC3CCNC3)c12` (stereo not drawn) [Example 354, 6-(3-Fluoro-4-hydroxy-phenyl)-3-methyl-1H-pyrazolo[3,4-b]pyridine-4-carboxylic acid (pyrrolidin-3-ylmethyl)-amide], 52%. Next, `Cc1n[nH]c2nc(-c3ccc(O)c(F)c3)cc(C(=O)NC3CCCN(C)C3)c12` (stereo not drawn) [Example 355, 6-(3-Fluoro-4-hydroxy-phenyl)-3-methyl-1H-pyrazolo[3,4-b]pyridine-4-carboxylic acid (1-methyl-piperidin-3-yl)-amide]: 60%; `CC(=O)N1CCN(C(=O)c2cc(-c3ccc(O)c(F)c3)nc3[nH]nc(C)c23)CC1` [Example 356, 1-{4-[6-(3-Fluoro-4-hydroxy-phenyl)-3-methyl-1H-pyrazolo[3,4-b]pyridine-4-carbonyl]-piperazin-1-yl}-ethanone]: 31%; `CC(=O)N1CCC(NC(=O)c2cc(-c3ccc(O)c(F)c3)nc3[nH]nc(C)c23)CC1` [Example 357, 6-(3-Fluoro-4-hydroxy-phenyl)-3-methyl-1H-pyrazolo[3,4-b]pyridine-4-carboxylic acid (1-acetyl-piperidin-4-yl)-amide]: 21%.

As for `CCN1CC2CC1CN2C(=O)c1cc(-c2ccc(O)c(F)c2)nc2[nH]nc(C)c12` (stereo not drawn) [Example 358, (5-Ethyl-2,5-diaza-bicyclo[2.2.1]hept-2-yl)-[6-(3-fluoro-4-hydroxy-phenyl)-3-methyl-1H-pyrazolo[3,4-b]pyridin-4-yl]-methanone], the inhibition at 1.14 µM is 28%.

For the compound `Cc1n[nH]c2nc(-c3ccc(O)c(F)c3)cc(C(=O)NCC3CCC(=O)N3)c12` (stereo not drawn) [Example 359, 6-(3-Fluoro-4-hydroxy-phenyl)-3-methyl-1H-pyrazolo[3,4-b]pyridine-4-carboxylic acid (5-oxo-pyrrolidin-2-ylmethyl)-amide], the inhibition at 1.14 µM amounted to 36%.

As to `Cc1n[nH]c2nc(-c3ccc(O)c(F)c3)cc(C(=O)NC3CCN(C4CCCCC4)CC3)c12` [Example 360, 6-(3-Fluoro-4-hydroxy-phenyl)-3-methyl-1H-pyrazolo[3,4-b]pyridine-4-carboxylic acid (1-cyclohexyl-piperidin-4-yl)-amide], the inhibition at 1.14 µM was 52%.

The values above are taken from patent US8686150B2 (Sanofi, priority 2011, dated 2014).
